From patent publication US20140120087A1, “TRIAZOLOPYRIDINES” (BAYER INTELLECTUAL PROPERTY GMBH, priority 2011, published 2014)

Assays:
Mps-1 kinase [1] = target: T1, Mps-1 kinase (Homo sapiens, UniProt P33981); test: Mps-1 kinase assay with 10 μM ATP (TR-FRET)
T1 sequence (P33981 1-857): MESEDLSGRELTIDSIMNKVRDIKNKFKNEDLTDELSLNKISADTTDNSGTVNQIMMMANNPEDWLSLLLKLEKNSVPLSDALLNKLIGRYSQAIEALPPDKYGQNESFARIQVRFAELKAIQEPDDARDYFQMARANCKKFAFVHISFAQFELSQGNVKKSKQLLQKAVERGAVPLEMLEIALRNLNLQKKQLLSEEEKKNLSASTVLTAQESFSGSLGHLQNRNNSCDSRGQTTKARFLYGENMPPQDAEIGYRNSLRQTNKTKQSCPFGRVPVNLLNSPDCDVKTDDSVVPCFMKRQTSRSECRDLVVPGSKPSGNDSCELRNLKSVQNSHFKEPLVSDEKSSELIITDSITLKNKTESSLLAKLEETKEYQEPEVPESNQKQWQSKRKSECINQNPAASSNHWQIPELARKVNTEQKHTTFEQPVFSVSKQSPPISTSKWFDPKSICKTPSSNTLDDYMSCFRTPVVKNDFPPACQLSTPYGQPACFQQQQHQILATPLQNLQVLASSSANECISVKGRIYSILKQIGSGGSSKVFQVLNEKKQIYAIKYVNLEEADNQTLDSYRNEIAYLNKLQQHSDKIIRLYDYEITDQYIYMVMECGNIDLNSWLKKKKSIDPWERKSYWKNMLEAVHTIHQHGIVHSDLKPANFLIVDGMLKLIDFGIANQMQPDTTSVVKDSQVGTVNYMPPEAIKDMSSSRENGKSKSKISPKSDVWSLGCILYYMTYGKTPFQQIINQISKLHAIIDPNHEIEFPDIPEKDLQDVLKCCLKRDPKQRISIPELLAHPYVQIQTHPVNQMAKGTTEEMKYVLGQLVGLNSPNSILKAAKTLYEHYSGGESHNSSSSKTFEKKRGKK

Mps-1 kinase [2] = target: T1, Mps-1 kinase; test: Mps-1 kinase assay with 2 mM ATP (TR-FRET)

IC50 (Mps-1 kinase [1]) [nM] | IC50 (Mps-1 kinase [2]) [nM] | SMILES
≤ 1 | 13 | COc1cc(S(C)(=O)=O)c(F)cc1Nc1nc2ccc(-c3ccc(NC(=O)Cc4ccc(F)cc4)cc3)cn2n1 [Example 12.12, N-[4-(2-{[5-fluoro-2-methoxy-4-(methylsulfonyl)-phenyl]amino}[1,2,4]-triazolo[1,5-a]pyridin-6-yl)phenyl]-2-(4-fluoro-phenyl)acetamide]
≤ 1 | 1.6 | COc1cc(S(=O)(=O)NC(C)(C)C)ccc1Nc1nc2ccc(-c3ccc(NC(=O)Cc4ccc(F)cc4)cc3)cn2n1 [Example 12.15, N-[4-(2-{[4-(tert-butyl-sulfamoyl)-2-methoxy-phenyl]amino}[1,2,4]-triazolo[1,5-a]pyridin-6-yl)phenyl]-2-(4-fluoro-phenyl)acetamide]
≤ 1 | ≤ 1 | CCN(Cc1ccc(Nc2nc3ccc(-c4ccc(NC(=O)Cc5ccc(F)cc5)cc4)cn3n2)c(OC)c1)C(C)(C)CO [Example 12.16, N-(4-{2-[(4-{[ethyl(1-hydroxy-2-methylpropan-2-yl)amino]methyl}-2-methoxyphenyl)amino]-[1,2,4]triazolo[1,5-a]pyridin-6-yl}phenyl)-2-(4-fluorophenyl)acetamide]
≤ 1 | ≤ 1 | COc1cc(C(C)(C)O)ccc1Nc1nc2ccc(-c3ccc(NC(=O)Cc4ccc(F)cc4)cc3)cn2n1 [Example 12.17, 2-(4-fluorophenyl)-N-[4-(2-{[4-(2-hydroxypropan-2-yl)-2-methoxyphenyl]amino}-[1,2,4]triazolo[1,5-a]pyridin-6-yl)phenyl]acetamide]
≤ 1 | 1.5 | COc1ccc(Nc2nc3ccc(-c4ccc(NC(=O)Cc5ccc(F)cc5)cc4)cn3n2)c(OC)c1 [Example 12.18, N-(4-{2-[(2,4-dimethoxy-phenyl)amino][1,2,4]-triazolo[1,5-a]pyridin-6-yl}phenyl)-2-(4-fluoro-phenyl)acetamide]
≤ 1 | ≤ 1 | CCOc1cc(C(=O)N(C)CC)ccc1Nc1nc2ccc(-c3ccc(NC(=O)Cc4ccc(F)cc4)cc3)cn2n1 [Example 12.19, 3-ethoxy-N-ethyl-4-{[6-(4-{[(4-fluorophenyl)acetyl]-amino}phenyl)[1,2,4]-triazolo[1,5-a]pyridin-2-yl]amino}-N-methyl-benzamide]
≤ 1 | ≤ 1 | CCOc1cc(C(=O)NCCN(C)C)ccc1Nc1nc2ccc(-c3ccc(NC(=O)Cc4ccc(F)cc4)cc3)cn2n1 [Example 12.20, N-[2-(dimethylamino)ethyl]-3-ethoxy-4-{[6-(4-{[(4-fluorophenyl)acetyl]amino}-phenyl)[1,2,4]triazolo[1,5-a]pyridin-2-yl]amino}-benzamide]
≤ 1 | ≤ 1 | CS(=O)(=O)CCNC(=O)c1ccc(Nc2nc3ccc(-c4ccc(NC(=O)Cc5ccc(F)cc5)cc4)cn3n2)c(OCC(F)(F)F)c1 [Example 12.21, 4-{[6-(4-{[(4-fluorophenyl)-acetyl]amino}phenyl)[1,2,4]triazolo[1,5-a]pyridin-2-yl]amino}-N-[2-(methyl-sulfonyl)ethyl]-3-(2,2,2-trifluoroethoxy)benzamide]

Continued, molecule first:

SMILES | IC50 (Mps-1 kinase [1]) [nM] | IC50 (Mps-1 kinase [2]) [nM]
COc1cc(S(C)(=O)=O)ccc1Nc1nc2ccc(-c3ccc(C(=O)NCc4ccc(F)cc4)c(OC)c3)cn2n1 [Example 09.1, N-(4-fluorobenzyl)-2-methoxy-4-(2-{[2-methoxy-4-(methylsulfonyl)phenyl]-amino}[1,2,4]triazolo[1,5-α]pyridin-6-yl)benzamide] | ≤ 1 | 19
COc1cc(S(C)(=O)=O)ccc1Nc1nc2ccc(-c3ccc(NC(=O)Cc4ccc(F)cc4F)cc3)cn2n1 [Example 10.01] | ≤ 1 | 17
COc1cc(S(C)(=O)=O)ccc1Nc1nc2ccc(-c3ccc(C(=O)NCc4ccc(F)cc4F)cc3)cn2n1 [Example 11.01, N-(2,4-difluorobenzyl)-4-(2-{[2-methoxy-4-(methylsulfonyl)phenyl]amino}-[1,2,4]triazolo[1,5-α]pyridin-6-yl)benzamide] | ≤ 1 | 11
COCCNC(=O)c1ccc(Nc2nc3ccc(-c4ccc(NC(=O)Cc5ccc(F)cc5)cc4)cn3n2)c(OC)c1 [Example 12.01, 4-{[6-(4-{[(4-fluorophenyl)-acetyl]amino}phenyl)[1,2,4]triazolo[1,5-a]pyridin-2-yl]amino}-3-methoxy-N-(2-methoxyethyl)benzamide] | ≤ 1 | ≤ 1
COc1cc(C(=O)NCCS(C)(=O)=O)ccc1Nc1nc2ccc(-c3ccc(NC(=O)Cc4ccc(F)cc4)cc3)cn2n1 [Example 12.03] | ≤ 1 | ≤ 1
COc1cc(C(=O)NCCF)ccc1Nc1nc2ccc(-c3ccc(NC(=O)Cc4ccc(F)cc4)cc3)cn2n1 [Example 12.05, N-(2-fluoroethyl)-4-{[6-(4-{[(4-fluorophenyl)acetyl]-amino}phenyl)[1,2,4]-triazolo[1,5-a]pyridin-2-yl]amino}-3-methoxy-benzamide] | ≤ 1 | ≤ 1
CCN(C)C(=O)c1ccc(Nc2nc3ccc(-c4ccc(NC(=O)Cc5ccc(F)cc5)cc4)cn3n2)c(OC)c1 [Example 12.06, N-ethyl-4-{[6-(4-{[(4-fluorophenyl)acetyl]amino}-phenyl)[1,2,4]triazolo[1,5-a]pyridin-2-yl]amino}-3-methoxy-N-methyl-benzamide] | ≤ 1 | ≤ 1
COc1cc(C(=O)NCC(F)F)ccc1Nc1nc2ccc(-c3ccc(NC(=O)Cc4ccc(F)cc4)cc3)cn2n1 [Example 12.07, N-(2,2-difluoroethyl)-4-{[6-(4-{[(4-fluorophenyl)-acetyl]amino}phenyl)[1,2,4]triazolo[1,5-a]pyridin-2-yl]amino}-3-methoxy-benzamide] | ≤ 1 | ≤ 1
COc1cc(C(=O)N(C)CCN(C)C)ccc1Nc1nc2ccc(-c3ccc(NC(=O)Cc4ccc(F)cc4)cc3)cn2n1 [Example 12.08, N-[2-(dimethylamino)ethyl]-4-{[6-(4-{[(4-fluorophenyl)-acetyl]amino}phenyl)[1,2,4]triazolo[1,5-a]pyridin-2-yl]amino}-3-methoxy-N-methylbenzamide] | ≤ 1 | ≤ 1
COc1cc(C(=O)N(C)CC(F)(F)F)ccc1Nc1nc2ccc(-c3ccc(NC(=O)Cc4ccc(F)cc4)cc3)cn2n1 [Example 12.09, 4-{[6-(4-{[(4-fluorophenyl)-acetyl]amino}phenyl)[1,2,4]triazolo[1,5-a]pyridin-2-yl]amino}-3-methoxy-N-methyl-N-(2,2,2-trifluoro-ethyl)benzamide] | ≤ 1 | 2.5
COc1cc(C(=O)NCCN(C)C)ccc1Nc1nc2ccc(-c3ccc(NC(=O)Cc4ccc(F)cc4)cc3)cn2n1 [Example 12.10, N-[2-(dimethylamino)ethyl]-4-{[6-(4-{[(4-fluorophenyl)-acetyl]amino}phenyl)[1,2,4]triazolo[1,5-a]pyridin-2-yl]amino}-3-methoxy-benzamide] | ≤ 1 | ≤ 1
COc1cc(C(=O)NCCCF)ccc1Nc1nc2ccc(-c3ccc(NC(=O)Cc4ccc(F)cc4)cc3)cn2n1 [Example 12.11, 4-{[6-(4-{[(4-fluorophenyl)-acetyl]amino}phenyl)[1,2,4]triazolo[1,5-a]pyridin-2-yl]amino}-N-(3-fluoro-propyl)-3-methoxybenzamide] | ≤ 1 | 1.2
